US10513519B2, “Solid forms of (1S,4S)-4-(2-(((3S,4R)-3-fluorotetrahydro-2H-pyran-4-yl)amino)-8-((2,4,6-trichlorophenyl)amino)-9H-purin-9-yl)-1-methylcyclohexane-1-carboxamide and methods of their use” (Signal Pharmaceuticals, LLC, priority 2016, dated 2019)

Tested on: cancer cell lines
Assay: Multiplexed cytotoxicity assay: cell proliferation (relative cell count IC50, GI50)
Assay type: cell-based
Conditions: Homo sapiens
Procedure: (§1) Cells are grown in RPMI1640, 10% FBS, 2 mM L-alanyl-L-Glutamine, 1 mM Na pyruvate or a special medium in a humidified atmosphere of 5% CO2 at 37° C. Cells are seeded into 384-well plates and incubated in a humidified atmosphere of 5% CO2 at 37° C. Compounds are added 24 h post cell seeding. At the same time, a time zero untreated cell plate is generated. After a 72 hour incubation period, cells are fixed and stained with fluorescently labeled antibodies and nuclear dye to allow visualization of nuclei, apoptotic cells and mitotic cells. Apoptotic cells are detected using an anti-active caspase-3 antibody. Mitotic cells are detected using an anti phospho-histone-3 antibody. Compounds are serially diluted 3.16-fold and assayed over 10 concentrations in a final assay concentration of 0.1% DMSO from the highest test concentration of 10 μM. Automated fluorescence microscopy was carried out using a Molecular Devices ImageXpress Micro XL high-content imager, and images are collected with a 4× objective.
(§2) Sixteen-bit TIFF images are acquired and analyzed with MetaXpress 5.1.0.41 software. Cell proliferation is measured by the signal intensity of the incorporated nuclear dye. The cell proliferation assay output is referred to as the relative cell count. To determine the cell proliferation end point, the cell proliferation data output is transformed to percentage of control (POC) using the following formula: POC=relative cell count(compound wells)/relative cell count(vehicle wells)×100
(§3) GI50 is the concentration needed to reduce the observed growth by half. This is the concentration that inhibits the growth to the level midway between growth in untreated cells and the number of cells seeded in the well (Time zero value). The IC50 values are calculated using nonlinear regression to fit data to a sigmoidal 4 point, 4 parameter One-Site dose response model, where: y(fit)=A+[(B−A)/(1+((C/x)^D))].
as §1, with “In another experiment, cells were grown” for “Cells are grown”, “Cells were” for “Cells are”, “Compounds were” for “Compounds are”, “plate was” for “plate is”, “cells were” for “cells are”, “images were” for “images are”
as §2, with “images were” for “images are”, “proliferation was” for “proliferation is”, “output was” for “output is”
as §3, with “GI50 refers to” for “GI50 is”, “This corresponds to” for “This is”, “values were” for “values are”

[1] = BV-173, BV173 (Hematopoietic and lymphoid, Leukemia)
[2] = BXPC-3, 72 h, BXPC3, Pancreas, 72 h
[3] = BeWo, 72 h, Female GU, Placenta
[4] = C-4-II, C4II (Female GU, Cervix)
[5] = C-33-A, C33A (Female GU, Cervix)
[6] = CA46, CA46 (Hematopoietic and lymphoid, Lymphoma)
[7] = CAL-62, 72 h, CAL62, Endocrine, Thyroid, 72 h
[8] = CAPAN-1, 72 h, CAPAN1, Pancreas, 72 h
[9] = CCF-STTG1, CCFSTTG1 (CNS, Glioma)
[10] = CCRF-CEM, CCRFCEM (Hematopoietic and lymphoid, Leukemia)
[11] = CFPAC-1, 72 h, CFPAC1, Pancreas, 72 h
[12] = CGTH-W-1, 72 h, CGTHW1, Endocrine, Thyroid, 72 h
[13] = CHP-212, 72 h, CHP212, CNS, Neuroblastoma, 72 h
[14] = COLO-320-HSR, COLO320HSR (Colon)
[15] = COLO-829, COLO829 (Skin, Melanoma)
[16] = COR-L23, 72 h, CORL23, Lung, NSCLC, 72 h
[17] = COR-L105, 72 h, CORL105, Lung, NSCLC, 72 h
[18] = CRO-AP2, CROAP2 (Hematopoietic and lymphoid, Lymphoma)
[19] = Ca-Ski, 72 h, CASKI, Female GU, Ovary
[20] = Calu-1, 72 h, CALU1, Lung, NSCLC, 72 h
[21] = Calu-6, 72 h, CALU6, Lung, NSCLC, 72 h
[22] = Caov-3, 72 h, CAOV3, Female GU, Ovary, 72 h
[23] = Capan-2, 72 h, CAPAN2, Pancreas, 72 h
[24] = ChaGo-K-1, 72 h, CHAGOK1, Lung, NSCLC, 72 h
[25] = D283 Med, D283MED (CNS, Medulloblastoma)
[26] = DBTRG-05MG, DBTRG05MG (CNS, Glioma)

`C[C@]1(C(N)=O)CC[C@@H](n2c(Nc3c(Cl)cc(Cl)cc3Cl)nc3cnc(N[C@@H]4CCOC[C@H]4F)nc32)CC1` [Compound 1, cis-4-[2-{[(3S,4R)-3-fluorooxan-4-yl]amino}-8-(2,4,6-trichloroanilino)-9H-purin-9-yl]-1-methylcyclohexane-1-carboxamide] was tested, and the GI50 (BT-474, BT474 (Breast)) was greater than 10000 nM, the IC50 (BT-474, BT474 (Breast)) was greater than 10000 nM and the GI50 (BT-549, BT549 (Breast)) was greater than 10000 nM. For the same compound, the IC50 (BT-549, BT549 (Breast)) was greater than 10000 nM, the GI50 [1] was 1100 nM and the IC50 [1] was greater than 10000 nM. For the same compound, the GI50 [2] was 36.9 nM, the IC50 [2] was 45.5 nM and the GI50 [3] was 5160 nM. It also gave an IC50 [3] of 5690 nM, a GI50 [4] greater than 10000 nM and an IC50 [4] greater than 10000 nM. The GI50 [5] was 191 nM, the IC50 [5] was 407 nM and the GI50 [6] was 14.6 nM. For the same compound, the IC50 [6] was 21.3 nM, the GI50 (CAKI-1, CAKI1 (Kidney)) was 91.4 nM and the IC50 (CAKI-1, CAKI1 (Kidney)) was 151 nM. The GI50 (CAKI-2, CAKI2 (Kidney)) was 139 nM, the IC50 (CAKI-2, CAKI2 (Kidney)) was 193 nM and the GI50 (CAL-27, CAL27 (Head and Neck)) was 59.2 nM. For the same compound, the IC50 (CAL-27, CAL27 (Head and Neck)) was 66.1 nM, the GI50 [7] was 83.6 nM and the IC50 [7] was 93.6 nM. For the same compound, the GI50 (CAMA-1, CAMA1 (Breast)) was 298 nM, the IC50 (CAMA-1, CAMA1 (Breast)) was 2240 nM and the GI50 [8] was 105 nM. It also gave an IC50 [8] greater than 10000 nM, a GI50 [9] greater than 10000 nM and an IC50 [9] greater than 10000 nM. It also gave a GI50 [10] of 5030 nM, an IC50 [10] of 6050 nM and a GI50 [11] greater than 10000 nM. For the same compound, the IC50 [11] was greater than 10000 nM, the GI50 [12] was 54.7 nM and the IC50 [12] was 60.5 nM. For the same compound, the GI50 (CHL-1, CHL1 (Skin, Melanoma)) was 103 nM, the IC50 (CHL-1, CHL1 (Skin, Melanoma)) was 117 nM and the GI50 [13] was 6.6 nM. It also gave an IC50 [13] of 16.5 nM, a GI50 (COLO 201, COLO201 (Colon)) of 12.8 nM and an IC50 (COLO 201, COLO201 (Colon)) of 17.2 nM. For the same compound, the GI50 (COLO 205, COLO205 (Colon)) was 9.5 nM, the IC50 (COLO 205, COLO205 (Colon)) was 11.7 nM and the GI50 (COLO 320DM, COLO320DM (Colon)) was 9110 nM. It also gave an IC50 (COLO 320DM, COLO320DM (Colon)) greater than 10000 nM, a GI50 [14] of 4190 nM and an IC50 [14] of 4440 nM. It also gave a GI50 [15] of 12.1 nM, an IC50 [15] of 34.3 nM and a GI50 [16] of 23.8 nM. The IC50 [16] was 28.3 nM, the GI50 [17] was 16.5 nM and the IC50 [17] was 41.4 nM. It also gave a GI50 [18] of 996 nM, an IC50 [18] of 2580 nM and a GI50 [19] of 6760 nM. For the same compound, the IC50 [19] was greater than 10000 nM, the GI50 [20] was 96.7 nM and the IC50 [20] was 149 nM. It also gave a GI50 [21] of 46.3 nM, an IC50 [21] of 83 nM and a GI50 [22] of 429 nM. For the same compound, the IC50 [22] was greater than 10000 nM, the GI50 [23] was 136 nM and the IC50 [23] was 291 nM. The GI50 [24] was greater than 10000 nM, the IC50 [24] was greater than 10000 nM and the GI50 [25] was 2560 nM. It also gave an IC50 [25] of 7550 nM, a GI50 [26] of 43.2 nM and an IC50 [26] of 98.4 nM. For the same compound, the GI50 (DLD-1, DLD1 (Colon)) was 162 nM, the IC50 (DLD-1, DLD1 (Colon)) was 197 nM and the GI50 (DMS-53, 72 h, DMS53, Lung, SCLC, 72 h) was 998 nM.
